Laboratory results reported in US20250369863A1, “METHOD FOR DETERMINING A STATUS OF A CO-CULTURE” (Universiteit Antwerpen, priority 2022, published 2025).

Tested on: co-culture of patient-derived pancreatic tumor organoids (TCO) and cancer associated fibroblast (SCT)
Assay: co-culture of patient-derived pancreatic tumor organoids and cancer associated fibroblasts, stroma parameters from fluorescent images
Type: cell-based
Details: for stroma growth rate (normalized stromal growth rate): FIG. 5, FGF2 10 ng/ml; for stroma growth rate (normalized stromal growth rate) / stromal density of the micro-tumor / contractility: Nintedanib 0.5 μM; for stroma growth rate (normalized stromal growth rate) / stromal density of the micro-tumor: TGF-B 5 ng/ml; for stroma size (area): FIG. 6; for stroma size (area) / stromal size ratio: dynamic (over time) kinetic quantification; for stromal size ratio: FIG. 9; for stromal density of the micro-tumor: FIG. 10, static endpoint, compared to the control; for stromal density of the micro-tumor / contractility: FGF2 10 ng/mL; for contractility: FIGS. 7 and 8
Experimental: A co-culture was prepared of patient-derived pancreatic tumor organoids (TCO) and cancer associated fibroblast (SCT), wherein the TCO and the SCT were fluorescently labelled with the first and second fluorescent label respectively. First and second fluorescent images were recorded and the status of the sample was determined with and without contacting the sample with Nintedanib, TGFB or FGF2. Nintedanib is a known anti-fibrotic drug that inhibits fibroblast proliferation and motility. TGFB and FGF2 are growth factors that can stimulate fibroblast proliferation.

| Compound | micro-tumor formation driven by activated fibroblasts | stroma growth rate (normalized stromal growth rate) | stroma size (area) | stromal size ratio | stromal size ratio (listed as Nintedanib) | stromal density of the micro-tumor | contractility | motility (shown by contractility, stromal size ratio and stromal density (FIGS. 7 to 10)) |
| --- | --- | --- | --- | --- | --- | --- | --- | --- |
| COC(=O)c1ccc2c(c1)NC(=O)/C2=C(\Nc1ccc(N(C)C(=O)CN2CCN(C)CC2)cc1)c1ccccc1 [nintedanib, Nintedanib] | inhibited | inhibited | inhibited | reduced | inhibitory effect | reduced | lack of contractility | inhibited |
| FGF2: growth factor that can stimulate fibroblast proliferation | – | stimulated the strongest | stimulated the strongest | – | – | only had marginal effects | have been contracted together | – |
| TGFB | – | – | – | – | – | only had marginal effects | – | – |
